Source: patent US10874743B2, “IRAK degraders and uses thereof” (Kymera Therapeutics, Inc., priority 2017, dated 2020)

Tests used:
[1] = target: T1, IRAK4 (Homo sapiens, UniProt Q9NWZ3); assay: PBMC degradation assay (western blot, % IRAK4 degraded after 4 hours); type: cell-based; conditions: human PBMCs
T1 sequence (Q9NWZ3 1-460): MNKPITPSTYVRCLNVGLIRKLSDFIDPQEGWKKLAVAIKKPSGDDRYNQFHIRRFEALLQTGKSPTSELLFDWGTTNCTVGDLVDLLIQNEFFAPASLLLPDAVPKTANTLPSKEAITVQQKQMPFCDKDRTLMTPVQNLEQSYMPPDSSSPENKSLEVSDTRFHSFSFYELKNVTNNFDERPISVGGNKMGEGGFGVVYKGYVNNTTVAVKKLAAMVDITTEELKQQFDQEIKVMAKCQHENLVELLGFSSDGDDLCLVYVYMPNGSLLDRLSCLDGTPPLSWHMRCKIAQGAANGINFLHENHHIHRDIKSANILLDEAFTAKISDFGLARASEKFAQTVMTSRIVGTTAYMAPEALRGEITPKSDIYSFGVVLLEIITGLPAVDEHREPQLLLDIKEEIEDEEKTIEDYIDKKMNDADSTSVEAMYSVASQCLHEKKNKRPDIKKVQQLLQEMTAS
Description: Protocol summary of PBMC degradation studies from compound treatment through quantitation.
PBMC culture medium: Human peripheral blood mononuclear cells (PBMCs): RPMI+10% FBS (Heat-inactivated)+1% P/S.
Cells were cultured at a minimum of 2.5×10^6 c/mL. • PBMCs were incubated @ 37° C./5% CO2 and allowed to rest overnight. • Following overnight recovery, a cell count/viability assessment by trypan blue exclusion was performed. Cells densities were adjusted back to 2.5×10^6 c/mL (proceed with plating only if viability >80%). • In a 6 well plate, 2.0 mL of cells were added to each well for a minimum of 5×10^6 CT per treatment condition. Compounds dilutions were prepared from 20 mM stock and were added at a final 1000× dilution (0.1% DMSO concentration). • At the end of treatment, cells were harvested and spun @ 1800 rpm for 5 min. 1×PBS wash and spun again @ 1800 rpm for 5 min. Cell pellets were frozen and stored at −80° C. until further processing. • Lysates were generated by resuspending in lysis buffer. Protein quantification was performed with a BCA kit. • 20 μg of protein were loaded per lane and run on a 26-well 4-12% Bis-Tris SDS-page gel. • Transfers were performed on PVDF membranes using the BioRad Mixed MW turbo program for 7 min. • Membranes were blocked for one hour on a rocker at room temperature. • Primary antibodies were incubated overnight at 4° C. on a rocker. • Membranes were washed 3×TBST, 5 min each. • Secondaries were added and incubated for one hour on a rocker at room temperature. • Membranes were washed 3×TBST, 5 min each and rinsed well with deionized H2O. Membranes were scanned using the Licor Odessey CLx and bands were quantified using Image Studio Lite Version 5.2 software.
PBMC results at 4 hours. The letter codes indicate the percentage of IRAK4 degraded after 4 hours: A (>50% degradation), B (>20-50% degradation) and C (<20% degradation)

[2] = target: T1, IRAK4; assay: THP-1 degradation assay (western blot, % IRAK4 degraded after 24 hours); type: cell-based; design: endogenous in cells; conditions: THP-1 cells
Description: Compounds were reconstituted in DMSO to make stock solutions at concentration of 60 mM. THP-1 and OCI-LY10 cells were maintained in RPMI-1640 medium containing 10% FBS, 0.5 μM 2-ME or 20% FBS, 55 μM 2-ME, and 1% L-Glutamine respectively.
Cells were seeded into 6-well plates with 5e6 cells per well. 200 μL of diluted compounds were added to cells to the final concentration of 0.003-10 μM. After 4 or 24 hour-incubation at 37° C., cells were collected into 2 mL Eppendorf tubes and centrifuged at 1,000 rpm for 5 min. The cell pellets were washed with 1×DPBS once and resuspended in 60 μL lysis buffer. The cells were lysed on ice for 10 min, then centrifuged at 14,000 rpm for 10 min at 4° C. and the supernatants were collected for western blots. For THP-1 cells, the lysis buffer contained 40 mM pH 7.4 HEPES, 140 mM NaCl, 2.5 mM EDTA, 1% NP-40, 0.1% SDS, and protease inhibitor cocktail (Roche, Cat. No. 05892791001). For OCI-LY10 cells, RIPAbuffer (Thermo Fisher, 89900) with Halt Protease and Phosphatase Inhibitor Cocktail (Thermo Fisher, 78446) was applied.
The protein concentration of cell lysates was quantified with Pierce™ BCA Protein Assay Kit (Pierce, 23227). Albumin standards at different concentrations were prepared, involving 2,000 ug/mL, 1,500 ug/mL, 1,000 ug/mL, 750 ug/mL, 500 ug/mL, 250 ug/mL, 125 ug/mL, and 25 ug/mL. BCA working reagents were prepared by mixing BCA reagent A with reagent B in 50:1 ratio. 200 μL of the BCA working reagents were added to 25 μL of BCA standard or cell lysates in microplate, and mixed thoroughly on a plate shaker for 30 seconds. After incubation at 37° C. for 30 min, the absorbance of samples at 562 nm were measured with EnVision Plate Reader.
Protein lysates were prepared in NuPAGE™ LDS sample buffer and NuPAGE™ sample reducing agent, and incubated at 95° C. for 5 min. For western blots, 20-25 μg of total proteins were resolved in 4-12% Bis-Tris gels (Introgen, WG1403A) or 10% Bis-Tris Midi gels (Invitrogen, WG1202BOX) running with 1×MOPS SDS running buffer (Invitrogen, NP0001) or 1×MES SDS running buffer (Invitrogen, NP0002). The proteins were transferred to low fluorescence PVDF membranes using the Trans-Blot Turbo Transfer System. Membranes were then blocked in Odyssey blocking buffer at RT for 1 h followed by primary incubation at 4° C. overnight. The primary antibodies were IRAK1 rabbit monoclonal antibody (CST, #4504S, 1:500), IRAK3 rabbit polyclonal antibody (CST, #4369, 1:500), IRAK4 rabbit polyclonal antibody (CST, #4363S, 1:1,000), MyD88 rabbit monoclonal antibody (Abcam, Ab133739, 1:2,000), j3-actin mouse monoclonal antibody (Sigma, A5441, 10,000), and Gapdh mouse monoclonal antibody (Millipore, MAB374, 1:5,000). Membranes were washed three times with 1×TBST, and then incubated with IR Dye 800 CW Goat anti-rabbit (Licor, #926-32211) and IR Dye 700 CW Goat anti-mouse (Licor, #926-68070) secondary antibodies in 1:10,000 dilution at RT for 1 h. The western blot images were obtained using Odyssey Imaging System.
THP-1 results at 24 hours. The letter codes indicate the percentage of IRAK4 degraded after 24 hours: A (>50% degradation), B (>20-50% degradation) and C (<20% degradation)

SMILES	PBMC % IRAK4 Degradation [1]	THP-1 24 h % IRAK4 Degradation [2]
NC(=O)c1nn(-c2ccc(C(=O)NCCCCNC(=O)COc3cccc4c3C(=O)N(C3CCC(=O)NC3=O)C4=O)cc2)cc1NC(=O)c1coc(-c2ccnc(NCC(F)(F)F)c2)n1 (centres unmarked) [I-111]	B (>20-50% degradation)	–
O=C1CCC(N2C(=O)c3cccc(NCCOCCOCCNCc4ccc(-n5cc(NC(=O)c6coc(-c7ccnc(NCC8CC8)c7)n6)c(C(F)(F)F)n5)cc4)c3C2=O)C(=O)N1 (centres unmarked) [I-185, 3-2-(2-((Cyclopropylmethyl)amino)pyridin-4-yl)-N-(1-(4-(((2-(2-(2-((2-(2,6-dioxopiperidin-3-yl)-1,3-dioxoisoindolin-4-yl)amino)ethoxy)ethoxy)ethyl)amino)methyl)phenyl)-3-(trifluoromethyl)-1H-pyrazol-4-yl)oxazole-4-carboxamide]	A (>50% degradation)	–
NC(=O)c1nn(C2CCN(C(=O)NCCOCCOCCNc3cccc4c3C(=O)N(C3CCC(=O)NC3=O)C4=O)CC2)cc1NC(=O)c1coc(-c2ccnc(NCC(F)(F)F)c2)n1 (centres unmarked) [I-145, N-[3-carbamoyl-1-[1-[2-[2-[2-[[2-(2,6-dioxo-3-piperidyl)-1,3-dioxo-isoindolin-4-yl]amino]ethoxy]ethoxy]ethylcarbamoyl]-4-piperidyl]pyrazol-4-yl]-2-[2-(2,2,2-trifluoroethylamino)-4-pyridyl]oxazole-4-carboxamide]	C (<20% degradation)	–
NC(=O)c1nn(-c2ccc(C(=O)NCCC#CC#CCCNc3cccc4c3C(=O)N(C3CCC(=O)NC3=O)C4=O)cc2)cc1NC(=O)c1coc(-c2ccnc(NCC(F)(F)F)c2)n1 (centres unmarked) [I-179, N-[3-carbamoyl-1-[4-[8-[[2-(2,6-dioxo-3-piperidyl)-1,3-dioxo-isoindolin-4-yl]amino]octa-3,5-diynylcarbamoyl]phenyl]pyrazol-4-yl]-2-[2-(2,2,2-trifluoroethylamino)-4-pyridyl]oxazole-4-carboxamide]	C (<20% degradation)	–
O=C1CCC(N2C(=O)c3cccc(NCCOCCOCCNC(=O)c4ccc(-n5cc(NC(=O)c6coc(-c7ccnc(NCC(F)(F)F)c7)n6)c(C(F)(F)F)n5)cc4)c3C2=O)C(=O)N1 (centres unmarked) [I-134]	C (<20% degradation)	–
NC(=O)c1nn(-c2ccc(C(=O)NCCNCCCCCNc3cccc4c3C(=O)N(C3CCC(=O)NC3=O)C4=O)cc2)cc1NC(=O)c1coc(-c2ccnc(NCC(F)(F)F)c2)n1 (centres unmarked) [I-144, N-[3-carbamoyl-1-[4-[2-[5-[[2-(2,6-dioxo-3-piperidyl)-1,3-dioxo-isoindolin-4-yl]amino]pentylamino]ethylcarbamoyl]phenyl]pyrazol-4-yl]-2-[2-(2,2,2-trifluoroethylamino)-4-pyridyl]oxazole-4-carboxamide]	A (>50% degradation)	–
NC(=O)c1nn(-c2ccc(C(=O)NCCOCCOCCNc3cccc4c3CN(C3CCC(=O)NC3=O)C4=O)cc2)cc1NC(=O)c1coc(-c2ccnc(NCC(F)(F)F)c2)n1 (centres unmarked) [I-117, N-(3-carbamoyl-1-(4-((2-(2-(2-((2-(2,6-dioxopiperidin-3-yl)-1-oxoisoindolin-4-yl)amino)ethoxy)ethoxy)ethyl)carbamoyl)phenyl)-1H-pyrazol-4-yl)-2-(2-((2,2,2-trifluoroethyl)amino)pyridin-4-yl)oxazole-4-carboxamide]	A (>50% degradation)	–
NC(=O)c1nn(-c2ccc(C(=O)NCCCCCCCCCCCNC(=O)COc3cccc4c3C(=O)N(C3CCC(=O)NC3=O)C4=O)cc2)cc1NC(=O)c1coc(-c2ccnc(NCC(F)(F)F)c2)n1 (centres unmarked) [I-104]	C (<20% degradation)	–
NC(=O)c1nn(-c2ccc(C(=O)NCCCOCCCNc3cccc4c3C(=O)N(C3CCC(=O)NC3=O)C4=O)cc2)cc1NC(=O)c1coc(-c2ccnc(NCC(F)(F)F)c2)n1 (centres unmarked) [I-141]	A (>50% degradation)	–
NC(=O)c1nn(C2CN(C(=O)COCCOCCNc3cccc4c3C(=O)N(C3CCC(=O)NC3=O)C4=O)C2)cc1NC(=O)c1coc(-c2ccnc(NCC(F)(F)F)c2)n1 (centres unmarked) [I-156]	C (<20% degradation)	–
NC(=O)c1nn(-c2ccc(C(=O)NCCCCCCCCNC(=O)COc3cccc4c3C(=O)N(C3CCC(=O)NC3=O)C4=O)cc2)cc1NC(=O)c1coc(-c2ccnc(NCC(F)(F)F)c2)n1 (centres unmarked) [I-109]	B (>20-50% degradation)	–
O=C(COc1cccc2c1C(=O)N(C1CCC(=O)NC1=O)C2=O)NCCOCCOCCOCCNC(=O)[C@H]1CC[C@H](NC(=O)c2cnc(Nc3ccc4cnccc4n3)cc2NC2CC2)CC1 (some centres unmarked) [I-2]	–	C (<20% degradation)
O=C1CCC(N2C(=O)c3cccc(NCCOCCOCCOCCOCCN4CCN(CCOCC(F)CNC(=O)c5cnc(Nc6ccc7cnccc7n6)cc5NC5CC5)CC4)c3C2=O)C(=O)N1 (centres unmarked) [I-47]	–	B (>20-50% degradation)
O=C(COc1cccc2c1C(=O)N(C1CCC(=O)NC1=O)C2=O)NCCOCCOCCOCC(F)CNC(=O)c1cnc(Nc2ccc3cnccc3n2)cc1NC1CC1 (centres unmarked) [I-96]	–	C (<20% degradation)
O=C(COc1cccc2c1C(=O)N(C1CCC(=O)NC1=O)C2=O)NCCNC(=O)[C@H]1CC[C@H](NC(=O)c2cnc(Nc3ccc4cnccc4n3)cc2NC2CC2)CC1 (some centres unmarked) [I-8]	–	C (<20% degradation)
COc1cc(Nc2nc(N[C@H]3CCCC[C@H]3N)n3ccnc3c2C(N)=O)cc(OC)c1OCCOCCOCCOCCOCC(=O)N[C@H](C(=O)N1C[C@H](O)C[C@H]1C(=O)NCc1ccc(-c2scnc2C)cc1)C(C)(C)C [I-164]	–	C (<20% degradation)
Cc1ncsc1-c1ccc(CNC(=O)[C@@H]2C[C@@H](O)CN2C(=O)[C@H](NC(=O)CCCCNC(=O)[C@H]2CC[C@H](NC(=O)c3cnc(Nc4ccc5cnccc5n4)cc3NC3CC3)CC2)C(C)(C)C)cc1 [I-15]	–	A (>50% degradation)
